Columns and labels:
Assay in all cases: biochemical
[1] = biological target: T1, panel of 374 wild-type kinases (Homo sapiens, UniProt O00311); conditions: read-out: % Enzyme Activity (relative to DMSO controls), CDC7/DBF4
T1 construct: purchased Reaction Biology Corporation

[2] = biological target: T2, panel of 374 wild-type kinases (Homo sapiens, UniProt P05771); conditions: read-out: % Enzyme Activity (relative to DMSO controls), kinase PKCb1
T2 construct: purchased Reaction Biology Corporation

[3] = biological target: T3, panel of 374 wild-type kinases (Homo sapiens, UniProt P31751); conditions: read-out: % Enzyme Activity (relative to DMSO controls), AKT2
T3 construct: purchased Reaction Biology Corporation

[4] = biological target: T4, panel of 374 wild-type kinases (Homo sapiens, UniProt P41743); conditions: read-out: % Enzyme Activity (relative to DMSO controls), kinase PKCiota
T4 construct: purchased Reaction Biology Corporation
T4 sequence (P41743 1-596): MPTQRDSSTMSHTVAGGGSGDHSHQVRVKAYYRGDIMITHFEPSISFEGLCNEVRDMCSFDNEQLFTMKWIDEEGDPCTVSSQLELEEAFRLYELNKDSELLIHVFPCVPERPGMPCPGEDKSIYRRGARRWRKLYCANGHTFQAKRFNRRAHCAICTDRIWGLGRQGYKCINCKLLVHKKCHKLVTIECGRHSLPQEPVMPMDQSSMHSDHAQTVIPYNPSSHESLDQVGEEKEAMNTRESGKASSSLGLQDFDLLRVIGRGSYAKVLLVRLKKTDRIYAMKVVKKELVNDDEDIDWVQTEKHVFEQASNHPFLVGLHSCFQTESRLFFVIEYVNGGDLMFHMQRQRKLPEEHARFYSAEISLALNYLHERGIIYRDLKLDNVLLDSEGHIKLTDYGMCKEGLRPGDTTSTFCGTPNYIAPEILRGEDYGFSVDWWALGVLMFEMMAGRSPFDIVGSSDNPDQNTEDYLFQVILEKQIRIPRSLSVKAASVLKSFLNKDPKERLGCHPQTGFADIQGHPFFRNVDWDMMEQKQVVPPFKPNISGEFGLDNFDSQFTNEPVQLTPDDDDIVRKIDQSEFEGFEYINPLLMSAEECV

[5] = biological target: T5, panel of 374 wild-type kinases (Homo sapiens, UniProt P49760); conditions: read-out: % Enzyme Activity (relative to DMSO controls), CLK2
T5 construct: purchased Reaction Biology Corporation

[6] = biological target: T6, panel of 374 wild-type kinases (Homo sapiens, UniProt Q05513); conditions: read-out: % Enzyme Activity (relative to DMSO controls), kinase PKCzeta
T6 construct: purchased Reaction Biology Corporation
T6 sequence (Q05513 1-592): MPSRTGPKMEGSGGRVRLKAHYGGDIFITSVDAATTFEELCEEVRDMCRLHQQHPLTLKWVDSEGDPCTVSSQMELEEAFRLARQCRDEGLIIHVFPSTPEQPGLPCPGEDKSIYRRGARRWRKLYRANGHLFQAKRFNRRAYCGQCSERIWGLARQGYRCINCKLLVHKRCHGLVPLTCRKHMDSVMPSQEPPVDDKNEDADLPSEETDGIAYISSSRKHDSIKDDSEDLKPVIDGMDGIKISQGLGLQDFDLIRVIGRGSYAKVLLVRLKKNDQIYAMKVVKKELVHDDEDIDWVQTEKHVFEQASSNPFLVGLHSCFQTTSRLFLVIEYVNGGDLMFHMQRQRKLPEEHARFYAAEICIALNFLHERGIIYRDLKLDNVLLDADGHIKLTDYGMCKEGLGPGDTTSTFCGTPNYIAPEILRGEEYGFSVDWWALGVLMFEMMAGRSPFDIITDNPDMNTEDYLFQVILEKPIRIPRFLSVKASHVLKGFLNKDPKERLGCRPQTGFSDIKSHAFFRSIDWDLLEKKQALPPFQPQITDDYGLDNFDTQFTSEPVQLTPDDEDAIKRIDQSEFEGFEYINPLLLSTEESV

[7] = biological target: T7, panel of 374 wild-type kinases (Homo sapiens, UniProt Q5VT25); conditions: read-out: % Enzyme Activity (relative to DMSO controls), MRCKa/CDC42BPA
T7 construct: purchased Reaction Biology Corporation

[8] = biological target: T8, panel of 374 wild-type kinases (Homo sapiens, UniProt Q8IVH8); conditions: read-out: % Enzyme Activity (relative to DMSO controls), GLK/MAP4K3
T8 construct: purchased Reaction Biology Corporation
T8 sequence (Q8IVH8 1-894): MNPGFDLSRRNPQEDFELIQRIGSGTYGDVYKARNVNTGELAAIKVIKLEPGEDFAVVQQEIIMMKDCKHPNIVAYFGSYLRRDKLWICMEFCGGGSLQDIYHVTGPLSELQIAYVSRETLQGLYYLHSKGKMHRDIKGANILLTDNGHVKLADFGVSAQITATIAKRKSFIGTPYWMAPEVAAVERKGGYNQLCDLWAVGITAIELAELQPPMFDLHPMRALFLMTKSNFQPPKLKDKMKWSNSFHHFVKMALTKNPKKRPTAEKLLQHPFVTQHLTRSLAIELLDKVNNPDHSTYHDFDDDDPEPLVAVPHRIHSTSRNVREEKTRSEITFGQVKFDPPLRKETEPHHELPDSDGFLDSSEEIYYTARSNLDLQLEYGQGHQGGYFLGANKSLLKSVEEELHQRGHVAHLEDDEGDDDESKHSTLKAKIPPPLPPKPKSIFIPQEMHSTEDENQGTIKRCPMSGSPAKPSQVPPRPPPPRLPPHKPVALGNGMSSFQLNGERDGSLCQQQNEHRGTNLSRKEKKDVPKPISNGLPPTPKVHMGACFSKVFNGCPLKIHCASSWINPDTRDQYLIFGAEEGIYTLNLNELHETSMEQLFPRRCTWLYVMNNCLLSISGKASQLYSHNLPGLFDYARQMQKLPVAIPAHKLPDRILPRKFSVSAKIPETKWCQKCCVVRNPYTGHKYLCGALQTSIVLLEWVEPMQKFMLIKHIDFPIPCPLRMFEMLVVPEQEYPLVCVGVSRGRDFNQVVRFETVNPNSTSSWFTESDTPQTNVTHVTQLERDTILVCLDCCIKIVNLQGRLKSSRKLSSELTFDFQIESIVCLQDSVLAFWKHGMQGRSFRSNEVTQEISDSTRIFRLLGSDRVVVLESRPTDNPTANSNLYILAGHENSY

[9] = biological target: T9, panel of 374 wild-type kinases (Homo sapiens, UniProt Q9HAZ1); conditions: read-out: % Enzyme Activity (relative to DMSO controls), CLK4
T9 construct: purchased Reaction Biology Corporation

[10] = biological target: T10, panel of 374 wild-type kinases (Homo sapiens, UniProt Q9Y243); conditions: read-out: % Enzyme Activity (relative to DMSO controls), AKT3
T10 construct: purchased Reaction Biology Corporation
T10 sequence (Q9Y243 whole entry): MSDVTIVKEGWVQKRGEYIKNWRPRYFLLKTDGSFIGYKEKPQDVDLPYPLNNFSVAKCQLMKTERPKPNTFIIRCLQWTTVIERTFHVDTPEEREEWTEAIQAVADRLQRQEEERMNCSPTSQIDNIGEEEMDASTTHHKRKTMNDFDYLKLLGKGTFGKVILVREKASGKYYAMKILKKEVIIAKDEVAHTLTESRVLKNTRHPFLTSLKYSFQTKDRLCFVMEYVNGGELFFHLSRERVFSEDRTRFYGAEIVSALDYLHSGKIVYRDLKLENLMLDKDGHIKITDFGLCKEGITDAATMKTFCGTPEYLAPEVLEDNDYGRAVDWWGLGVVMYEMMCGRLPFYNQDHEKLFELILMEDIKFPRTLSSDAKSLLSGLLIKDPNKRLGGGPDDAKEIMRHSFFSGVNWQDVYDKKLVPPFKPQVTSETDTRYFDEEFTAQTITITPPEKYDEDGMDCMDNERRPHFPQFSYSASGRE

T1 sequence (O00311 whole entry): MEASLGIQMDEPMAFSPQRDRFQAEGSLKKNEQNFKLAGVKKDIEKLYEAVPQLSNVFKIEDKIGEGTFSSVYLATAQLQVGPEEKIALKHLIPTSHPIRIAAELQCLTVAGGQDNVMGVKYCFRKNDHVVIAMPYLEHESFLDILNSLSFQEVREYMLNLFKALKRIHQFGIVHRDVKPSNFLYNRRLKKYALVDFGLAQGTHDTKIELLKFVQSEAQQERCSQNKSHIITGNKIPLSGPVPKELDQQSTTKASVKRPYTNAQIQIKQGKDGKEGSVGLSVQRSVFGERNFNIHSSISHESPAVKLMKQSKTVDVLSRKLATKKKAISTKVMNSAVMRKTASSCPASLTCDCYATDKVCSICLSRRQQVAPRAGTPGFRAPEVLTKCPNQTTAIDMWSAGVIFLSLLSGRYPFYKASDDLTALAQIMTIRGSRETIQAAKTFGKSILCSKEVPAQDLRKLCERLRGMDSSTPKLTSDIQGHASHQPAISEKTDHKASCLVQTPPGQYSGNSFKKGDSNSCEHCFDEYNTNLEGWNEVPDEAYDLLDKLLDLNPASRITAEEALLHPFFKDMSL
T3 sequence (P31751 whole entry): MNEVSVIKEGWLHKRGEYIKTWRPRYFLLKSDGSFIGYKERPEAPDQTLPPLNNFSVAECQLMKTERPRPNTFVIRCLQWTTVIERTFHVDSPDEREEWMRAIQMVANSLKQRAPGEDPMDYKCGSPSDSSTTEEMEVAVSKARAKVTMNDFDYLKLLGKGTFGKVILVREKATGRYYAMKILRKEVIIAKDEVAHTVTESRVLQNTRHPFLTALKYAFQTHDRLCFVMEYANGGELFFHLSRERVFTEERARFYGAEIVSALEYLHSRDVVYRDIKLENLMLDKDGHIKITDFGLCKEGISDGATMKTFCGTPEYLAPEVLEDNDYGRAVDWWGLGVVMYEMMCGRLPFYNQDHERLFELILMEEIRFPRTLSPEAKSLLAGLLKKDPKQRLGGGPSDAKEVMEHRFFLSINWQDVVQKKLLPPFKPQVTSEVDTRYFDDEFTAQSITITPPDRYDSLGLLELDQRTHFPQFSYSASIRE
T2 sequence (P05771 whole entry): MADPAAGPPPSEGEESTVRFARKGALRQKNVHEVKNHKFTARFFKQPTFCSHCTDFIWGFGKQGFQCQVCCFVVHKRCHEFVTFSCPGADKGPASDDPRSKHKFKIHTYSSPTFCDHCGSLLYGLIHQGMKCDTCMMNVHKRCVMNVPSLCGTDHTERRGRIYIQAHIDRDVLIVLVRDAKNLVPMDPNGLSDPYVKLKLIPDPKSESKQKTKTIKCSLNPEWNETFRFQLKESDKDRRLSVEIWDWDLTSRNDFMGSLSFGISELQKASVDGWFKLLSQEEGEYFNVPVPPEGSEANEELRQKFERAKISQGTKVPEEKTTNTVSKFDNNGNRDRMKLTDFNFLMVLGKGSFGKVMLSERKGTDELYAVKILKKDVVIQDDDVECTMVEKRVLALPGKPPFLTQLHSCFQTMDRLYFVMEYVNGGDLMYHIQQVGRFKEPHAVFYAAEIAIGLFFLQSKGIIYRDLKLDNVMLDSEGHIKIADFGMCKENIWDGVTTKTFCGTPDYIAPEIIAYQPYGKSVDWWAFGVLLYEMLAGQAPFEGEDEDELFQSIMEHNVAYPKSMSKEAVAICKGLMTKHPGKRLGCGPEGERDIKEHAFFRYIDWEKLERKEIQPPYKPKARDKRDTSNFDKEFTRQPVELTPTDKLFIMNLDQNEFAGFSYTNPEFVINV
T5 sequence (P49760 whole entry): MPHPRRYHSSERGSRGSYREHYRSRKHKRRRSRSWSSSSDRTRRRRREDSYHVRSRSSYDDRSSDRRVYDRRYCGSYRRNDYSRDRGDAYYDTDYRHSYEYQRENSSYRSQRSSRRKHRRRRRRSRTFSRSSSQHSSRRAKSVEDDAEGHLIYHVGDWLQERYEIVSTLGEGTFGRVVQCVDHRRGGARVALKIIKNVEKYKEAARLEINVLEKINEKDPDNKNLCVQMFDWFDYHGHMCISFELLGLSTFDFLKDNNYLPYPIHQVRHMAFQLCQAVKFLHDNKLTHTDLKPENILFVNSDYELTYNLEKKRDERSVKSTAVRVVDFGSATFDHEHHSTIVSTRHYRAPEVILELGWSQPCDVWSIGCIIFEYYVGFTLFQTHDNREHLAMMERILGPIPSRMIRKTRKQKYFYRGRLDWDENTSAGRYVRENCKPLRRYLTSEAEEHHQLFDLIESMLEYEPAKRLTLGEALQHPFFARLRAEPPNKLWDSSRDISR
T9 sequence (Q9HAZ1 whole entry): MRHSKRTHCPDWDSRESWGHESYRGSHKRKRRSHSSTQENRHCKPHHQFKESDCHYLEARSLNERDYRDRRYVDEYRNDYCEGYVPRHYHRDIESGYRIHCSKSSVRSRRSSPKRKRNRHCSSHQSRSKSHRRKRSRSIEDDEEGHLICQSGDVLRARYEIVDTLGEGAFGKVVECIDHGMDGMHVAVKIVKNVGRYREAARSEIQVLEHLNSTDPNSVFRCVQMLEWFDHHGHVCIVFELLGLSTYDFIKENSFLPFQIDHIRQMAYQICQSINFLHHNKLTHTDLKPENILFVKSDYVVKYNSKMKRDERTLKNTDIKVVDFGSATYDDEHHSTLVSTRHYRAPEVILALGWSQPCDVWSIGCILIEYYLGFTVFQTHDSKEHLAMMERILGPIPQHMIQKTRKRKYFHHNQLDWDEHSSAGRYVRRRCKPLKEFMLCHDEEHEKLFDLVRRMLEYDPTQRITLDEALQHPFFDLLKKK
T7 sequence (Q5VT25 whole entry): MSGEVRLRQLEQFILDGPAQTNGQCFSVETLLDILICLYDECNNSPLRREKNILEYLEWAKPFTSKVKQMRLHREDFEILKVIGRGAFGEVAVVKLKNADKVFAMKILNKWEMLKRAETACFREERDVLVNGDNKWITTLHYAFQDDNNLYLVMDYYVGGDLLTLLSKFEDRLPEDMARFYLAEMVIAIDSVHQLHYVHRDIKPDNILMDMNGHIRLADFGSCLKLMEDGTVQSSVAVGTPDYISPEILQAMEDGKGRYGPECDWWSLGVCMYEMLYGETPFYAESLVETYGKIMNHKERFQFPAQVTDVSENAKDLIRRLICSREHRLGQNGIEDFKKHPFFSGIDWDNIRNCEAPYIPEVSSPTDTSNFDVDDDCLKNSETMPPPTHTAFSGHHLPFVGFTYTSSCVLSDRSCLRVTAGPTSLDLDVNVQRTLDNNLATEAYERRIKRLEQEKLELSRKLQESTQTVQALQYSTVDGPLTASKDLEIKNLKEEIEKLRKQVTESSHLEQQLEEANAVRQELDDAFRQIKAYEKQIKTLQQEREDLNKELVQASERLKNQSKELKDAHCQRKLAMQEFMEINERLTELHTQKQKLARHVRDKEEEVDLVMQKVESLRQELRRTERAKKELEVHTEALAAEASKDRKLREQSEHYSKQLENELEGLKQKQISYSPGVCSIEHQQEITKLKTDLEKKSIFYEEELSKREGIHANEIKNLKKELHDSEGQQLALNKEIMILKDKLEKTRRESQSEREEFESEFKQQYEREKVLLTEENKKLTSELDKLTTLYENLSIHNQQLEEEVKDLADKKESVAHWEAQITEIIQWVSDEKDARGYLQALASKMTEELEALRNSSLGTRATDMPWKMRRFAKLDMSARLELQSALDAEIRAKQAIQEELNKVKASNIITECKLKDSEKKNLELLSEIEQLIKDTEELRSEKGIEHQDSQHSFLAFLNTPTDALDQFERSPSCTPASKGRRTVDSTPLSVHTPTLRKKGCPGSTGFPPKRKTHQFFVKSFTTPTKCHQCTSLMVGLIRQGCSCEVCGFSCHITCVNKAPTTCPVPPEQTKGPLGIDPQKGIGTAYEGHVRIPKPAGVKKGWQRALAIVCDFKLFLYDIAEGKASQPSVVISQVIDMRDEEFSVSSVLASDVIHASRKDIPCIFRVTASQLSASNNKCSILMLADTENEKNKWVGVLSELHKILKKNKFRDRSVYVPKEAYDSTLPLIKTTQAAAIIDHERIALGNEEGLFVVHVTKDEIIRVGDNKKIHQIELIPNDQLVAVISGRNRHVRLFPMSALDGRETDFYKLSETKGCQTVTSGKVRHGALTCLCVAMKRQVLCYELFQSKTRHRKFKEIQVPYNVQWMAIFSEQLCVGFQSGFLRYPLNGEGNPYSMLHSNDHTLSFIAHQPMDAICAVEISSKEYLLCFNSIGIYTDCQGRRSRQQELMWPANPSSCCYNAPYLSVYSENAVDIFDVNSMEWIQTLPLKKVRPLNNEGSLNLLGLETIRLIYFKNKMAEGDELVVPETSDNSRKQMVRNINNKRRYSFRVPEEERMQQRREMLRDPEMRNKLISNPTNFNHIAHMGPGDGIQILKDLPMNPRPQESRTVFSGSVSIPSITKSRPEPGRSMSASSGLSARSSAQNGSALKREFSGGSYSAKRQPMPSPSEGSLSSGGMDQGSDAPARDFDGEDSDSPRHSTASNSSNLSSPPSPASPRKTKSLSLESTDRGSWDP

## O=C(Nc1cnn(-c2csc(C(=O)NC3COC3)c2)c1)Nc1c(F)cccc1Cl [Compound 25, 4-(4-(3-(2-chloro-6-fluorophenyl)ureido)-1H-pyrazol-1-yl)-N-(oxetan-3-yl)thiophene-2-carboxamide]
[1]
  remaining activity at 5 µM: 84.3%
[2]
  remaining activity at 5 µM: 100%
[3]
  remaining activity at 5 µM: 104%
[4]
  remaining activity at 5 µM: 87.4%
[5]
  remaining activity at 5 µM: 112%
[6]
  remaining activity at 5 µM: 93.6%
[7]
  remaining activity at 5 µM: 99%
[8]
  remaining activity at 5 µM: 100%
[9]
  remaining activity at 5 µM: 93.2%
[10]
  remaining activity at 5 µM: 97.6%

## O=C(Nc1cnn(-c2csc(C(=O)NC3COC3)c2)c1)Nc1ccccc1Cl [Compound 17, 4-(4-(3-(2-chlorophenyl)ureido)-1H-pyrazol-1-yl)-N-(oxetan-3-yl)thiophene-2-carboxamide]
[1]
  remaining activity at 5 µM: 111%
[2]
  remaining activity at 5 µM: 102%
[3]
  remaining activity at 5 µM: 89.5%
[4]
  remaining activity at 5 µM: 95.5%
[5]
  remaining activity at 5 µM: 103%
[6]
  remaining activity at 5 µM: 105%
[7]
  remaining activity at 5 µM: 99.3%
[8]
  remaining activity at 5 µM: 97.5%
[9]
  remaining activity at 5 µM: 66%
[10]
  remaining activity at 5 µM: 87.3%

## Cc1sc(C(=O)NC2COC2)cc1-n1cc(NC(=O)Nc2c(F)cccc2Cl)cn1 [Compound 27, 4-(4-(3-(2-chloro-6-fluorophenyl)ureido)-1H-pyrazol-1-yl)-5-methyl-N-(oxetan-3-yl)thiophene-2-carboxamide]
[1]; 10 uM
  remaining activity at 10 µM: 107%
[2]; 10 uM
  remaining activity at 10 µM: 111%
[3]; 10 uM
  remaining activity at 10 µM: 89.8%
[4]; 10 uM
  remaining activity at 10 µM: 90.8%
[5]; 10 uM
  remaining activity at 10 µM: 105%
[6]; 10 uM
  remaining activity at 10 µM: 104%
[7]; 10 uM
  remaining activity at 10 µM: 104%
[8]; 10 uM
  remaining activity at 10 µM: 118%
[9]; 10 uM
  remaining activity at 10 µM: 102%
[10]; 10 uM
  remaining activity at 10 µM: 94.8%

— patent publication US20240246942A1, “KINASE INHIBITORS FOR THE TREATMENT OF NEURODEGENERATIVE DISEASES” (priority 2020, published 2024)
